Measured values published in patent US5032599A, “N-(pyrrol-l-yl)pyridinamines” (Hoechst-Roussel Pharmaceuticals Inc., priority 1988, dated 1991).
Where a name gives a salt, the structure may show the parent alone.

Tested on: Scopolamine Induced Memory Deficit
Assay: Dark Avoidance Assay (reversal of scopolamine induced memory deficit)
Format: in vivo
Conditions: mice, retest after 24 hours
Description: Dark Avoidance Asssay In this assay mice are tested for their ability to remember an unpleasant stimulus for a period of 24 hours. A mouse is placed in a chamber that contains a dark compartment; a strong incandescent light drives it to the dark compartment, where an electric shock is administered through metal plates on the floor. The animal is removed from the testing apparatus and tested again, 24 hours later, for the ability to remember the electric shock. If scolopamine, an anticholinergic that is known to cause memory impairment, is administered before an animal's initial exposure to the test chamber, the animal re-enters the dark compartment shortly after being placed in the test chamber 24 hours later. This effect of scopolamine is blocked by an active test compound, resulting in a greater interval before re-entry into the dark compartment. The results for an active compound are expressed as the percent of a group of animals in which the effect of scopolamine is blocked, as manifested by an increased interval between being placed in the test chamber and re-entering the dark compartment.

SMILES: CN(c1ccncc1)n1cccc1C=O [1-[N-Methyl-N-(4-pyridinyl)]aminopyrrole-2-carboxaldehyde maleate]
- % of Animals With Scopolamine Induced Memory Deficit Reversed (1.25 mg/kg by body weight): 60%

SMILES: c1ccn(Nc2ccncc2)c1 [N-(1H-Pyrrol-1-yl)-4-pyridinamine]
- % of Animals With Scopolamine Induced Memory Deficit Reversed (0.63 mg/kg by body weight): 21%

SMILES: CCN(c1ccncc1)n1cccc1Cl.Cl [N-(2-Chloro-1H-pyrrol-1-yl)-N-ethyl-4-pyridinamine hydrochloride]
- % of Animals With Scopolamine Induced Memory Deficit Reversed (2.5 mg/kg by body weight): 33%

SMILES: CN(c1ccncc1)n1cccc1.Cl [N-Methyl-N-(1H-pyrrol-1-yl)-4-pyridinamine hydrochloride]
- % of Animals With Scopolamine Induced Memory Deficit Reversed (2.5 mg/kg by body weight): 43%

SMILES: CC[C@@H]1C(=O)OC[C@@H]1Cc1cncn1C [Pilocarpine, reference compound]
- % of Animals With Scopolamine Induced Memory Deficit Reversed (5.0 mg/kg by body weight): 23%

SMILES: CC(O)c1cccn1N(C)c1ccncc1 (stereo not drawn) [α-methyl-1-[[N-(4-pyridinyl)-N-methyl]amino]-1H-pyrrole-2-methanol maleate]
- % of Animals With Scopolamine Induced Memory Deficit Reversed (5.0 mg/kg by body weight): 19%
